Literature values as cited in patent US20220331292A1, “COMPOSITIONS AND METHODS FOR DELIVERY OF PSILOCIN AND PRODRUGS THEREOF” (priority 2021, published 2022).

Experiments:
[1] = biological target: 5-HT2a serotonin receptor (Homo sapiens, UniProt P28223)
[2] = not given; remark: listed apart in the source
[3] = psilocin after escalating doses of psilocybin

Sequence of 5-HT2a serotonin receptor (P28223 whole entry): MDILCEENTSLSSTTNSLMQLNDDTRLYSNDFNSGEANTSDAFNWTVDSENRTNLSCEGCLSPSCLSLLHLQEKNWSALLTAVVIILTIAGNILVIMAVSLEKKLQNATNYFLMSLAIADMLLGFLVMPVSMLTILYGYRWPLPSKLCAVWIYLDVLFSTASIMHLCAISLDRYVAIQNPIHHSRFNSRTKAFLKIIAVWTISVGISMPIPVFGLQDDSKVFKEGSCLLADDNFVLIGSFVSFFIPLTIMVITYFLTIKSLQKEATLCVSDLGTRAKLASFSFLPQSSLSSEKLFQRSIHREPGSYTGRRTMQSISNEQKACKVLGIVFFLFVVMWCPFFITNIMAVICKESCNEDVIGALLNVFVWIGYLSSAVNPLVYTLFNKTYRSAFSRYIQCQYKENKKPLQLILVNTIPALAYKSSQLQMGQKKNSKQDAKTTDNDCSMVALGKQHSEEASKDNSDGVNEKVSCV

SMILES | half-life [3] | pharmacokinetics (linearity) [3] | binding affinity with 5-HT2a [1] | serious physical or psychological events (oral 0.3, 0.45 and 0.6 mg/kg at monthly intervals, during or within 30 days of any dose) | share of metabolized psilocybin excreted in the urine as psilocin-O-glucuronide [2]
CN(C)CCc1c[nH]c2cccc(O)c12 [Psilocin, psilocin] | three | linear | high binding affinity |  | 
CN(C)CCc1c[nH]c2cccc(OP(=O)(O)O)c12 [Psilocybin, psilocybin] |  |  |  | no serious physical or psychological events | About 80%
